Assay [1] deals with Erythrocyte. The assay can be described thus: Induction of eryptosis in human erythrocytes assessed as hemolysis-mediated hemoglobin release at 1 uM after 48 hrs by photometric analysis. Format: functional, cell-based.
Assay [2] has as its system Erythrocyte. In words: Induction of eryptosis in human erythrocytes assessed as phospholipid scrambling of the cell membrane at >= 5 uM after 48 hrs using Annexin V-FITC staining by confocal laser scanning microscopy. Format: functional, cell-based.
Assay [3] relates to Erythrocyte. The assay can be described thus: Induction of eryptosis in human erythrocytes assessed as cell shrinkage measuring decrease in forward scatter of the cells at 5 uM after 48 hrs by […] FACS analysis. Format: functional.
The subject of assay [4] is Erythrocyte. The assay can be described thus: Induction of eryptosis in human erythrocytes assessed as increase in cytosolic Ca2+ concentration at >= 5 uM after 48 hrs by fluo-3/AM-fluorescence-based FACS analysis. The assay is classed as functional, cell-based.
Assay [5] has as its system Erythrocyte. In words: Induction of eryptosis in human erythrocytes assessed as stimulation of ceramide formation at 10 uM after 48 hrs by FITC-based flow cytometry. The assay is classed as functional, cell-based.
Assay [6] relates to Erythrocyte. In words: Induction of eryptosis in human erythrocytes assessed as decrease in intracellular ATP concentration at 10 uM after 48 hrs by luciferase-based luminometry. The assay is classed as functional, cell-based.
In assay [7] the test system is Erythrocyte. In words: Induction of eryptosis in human erythrocytes assessed as phospholipid scrambling of the cell membrane at 10 uM after 48 hrs using Annexin V-FITC staining by confocal laser scanning microscopy in absence of Ca2+. Format: functional, cell-based.
The subject of assay [8] is Erythrocyte. The assay can be described thus: Induction of apoptosis in human erythrocytes assessed as scrambling of the cell membrane at 0.5 to 10 uM after 48 hrs using Annexin V-FITC staining by confocal laser scanning microscopy in presence of Ca2+. The assay is classed as functional, cell-based.

Activity calls are given as the source filed them. The rule behind the calls is not given here.

On to `C[C@H]1[C@H](C)CC[C@]2(C(=O)O)CC[C@]3(C)C(=CC[C@@H]4[C@@]5(C)CC[C@H](O)C(C)(C)[C@@H]5CC[C@]43C)[C@H]12`, for which the result in assay [1], in assay [2], in assay [3], in assay [4] and in assay [8] was Active. The outcome in assay [5], in assay [6] and in assay [7] was inactive.

The record behind these values is ChEMBL document CHEMBL1921741, “Triggering of erythrocyte cell membrane scrambling by ursolic acid” (J Nat Prod, 2011).
